The subject of data set [1] is primary human bronchial fibroblasts from IPF patients (TGF-β1-triggered αSMA). Nature of the data set: Fibroblast-to-myofibroblast transition (FMT) assay, αSMA by high content analysis.
Data set [2] can be described thus: FMT assay, cell number (DAPI nuclei count). The settings on record: human.

For orientation: IC50 means the concentration that gives 50% inhibition. By EC50 is commonly meant the concentration at which the effect is half-maximal. High values mean a need for much substance, low ones an effect from little substance. `COC(=O)c1ccc2c(c1)NC(=O)/C2=C(\Nc1ccc(N(C)C(=O)CN2CCN(C)CC2)cc1)c1ccccc1` [nintedanib, reference compound]: the IC50 in data set [1] (Homo sapiens, Fibroblast, 72 h, read-out: αSMA inhibition IC50 (95% CI)) worked out at 280 nM. The “αSMA inhibition / transdifferentiation (in words)” value in data set [1] (IPF donor fibroblasts, TGF-β1, 3 days, high content imaging) is listed as “inhibit transdifferentiation”. Besides, the EC50 at 3 days in data set [2] was approximately 18 µM.
